Measurements published in US10391070B2, “Compositions and methods for treating neurological diseases or injury” (MUSC FOUNDATION FOR RESEARCH DEVELOPMENT, priority 2012, dated 2019).

Legend:
[1] = system: maximal electroshock-induced seizures; test: Maximal electroshock test; format: in vivo, mouse; details: mice; for animals protected/animals tested, 0.25 hr / animals protected/animals tested, 0.5 hr / animals protected/animals tested, 1.0 hr / animals protected/animals tested, 2.0 hr / animals protected/animals tested, 4.0 hr: 100 mg/kg i.p., maximal electroshock
Experimental: Mouse studies were performed by NIH Anticonvulsant Screening Program at the National Institute of Neurological Disorders and Stroke (Stables and Kupferberg, 1997) according to the established NIH experimental procedures outlined below. Compounds were delivered into mice by i.p. injection at a dose of 100 mg/kg in sterile 5% DMSO, 95% Neobee (Josey et al., 2013). One of four methods for seizure induction was subsequently administered to mice at 0.25, 0.5, 1, 2 and 4 h after treatment with compound. (1) Subcutaneous PTZ seizure threshold test. PTZ was administered at a concentration of 85 mg/kg, into the loose fold of skin in the midline of the neck. […] (2) Maximal electroshock test. 60 Hz of 50 mA alternating current was delivered for 0.2 s by corneal electrodes. Mice were considered protected from seizures when the hindlimb tonic extensor was absent (White et al., 1995). (3) Minimal clonic seizure (6 Hz) test. 6 Hz of 32 mA or 44 mA alternating current was delivered for 3 s by corneal electrodes to elicit a psychomotor seizure. Mice were considered protected from seizures when the automatistic behaviors were absent (Barton et al., 2001). (4) Corneal kindled mouse model. Mice were kindled electrically with a 3 s stimulation, 8 mA, 60 Hz, and corneal electrodes to a criterion of 10 consecutive Stage 5 seizures (facial clonus and head nodding progressing to forelimb clonus, and finally rearing and falling accompanied by a generalized clonic seizure as described by Racine, 1972). Animals generally reach Stage 5 after twice daily stimulation for 8 days. With continued stimulation once a day, animals usually progressed to a reproducible Stage 5 after 10-14 additional days. At least 72 hours after the mice were kindled, the test substance was administered i.p. and each animal was given the electrical stimulus indicated above. […] Treated animals not displaying a Stage 4 or 5 seizure were considered protected.
The data for each treatment is represented as the number of animals protected/number of animals tested.
The maximal electroshock-induced seizures (MES) test is a model for generalized tonic-clonic seizures and provides an indication of a compound's ability to prevent seizure spread when all neuronal circuits in the brain are maximally active. These seizures are highly reproducible and are electrophysiologically consistent with human seizures. An animal is considered “protected” from MES-induced seizures based on abolition of the hindlimb tonic extensor component of the seizure.

[2] = Mouse neurotoxicity (rotorod); format: in vivo; details: mice, 100 mg/kg i.p.
Experimental: Using a 96-well plate, one zebrafish larva (7 dpf) was placed in each well in 100 μL of tank water. 100 μL of each compound was then added to each well for 12 animals (one row) for a final volume of 200 μL. One row of zebrafish larvae was used as DMSO only controls. […] Toxicity was also measured in the mouse model by the NIH Anticonvulsant Screening Program at the National Institute of Neurological Disorders and Stroke (Stables and Kupferberg, 1997), according to the established NIH experimental procedures. Compounds were delivered into mice by intraperitoneal (i.p.) injection at a dose of 100 mg/kg in sterile 5% DMSO, 95% Neobee (Josey et al., 2013). Acute toxicity was assessed by monitoring the animals for impaired neuromuscular function by placing treated mice on a rod rotating at 6 rpm. […].

HT22 cells [3] = test: Glutathione determination in glutamate-treated cells; format: cell-based, mouse; details: HT22, 10 mM glutamate 8 hrs, 500 nM
Experimental: The content of total glutathione (reduced and oxidized) in the supernatant of cell homogenate was measured using the glutathione assay kit (Cayman Chemical) in microtiter plate assay, which utilizes an enzymatic recycling method, using glutathione reductase, for the quantification of glutathione. The sulfhydryl group of glutathione reacted with 5,5′-dithiobis-2-nitrobenzoic acid (DTNB) and produced a yellow-colored 5-thio-2-nitrobenzoic acid (TNB), which was measured at 405 nm.

HT22 cells [4] = test: Intracellular ROS measurement (Rho123, CM-H2DCFDA); format: cell-based, mouse; details: HT22, 10 mM glutamate 8 hrs, 250 nM
Experimental: Intracellular generation of ROS was evaluated by spectrofluorometry using the membrane-permeable compound dihydrorhodamine 123 (Rho123; Invitrogen), and images were collected using 5-(and -6)-chloromethyl-2′,7′-dichlorodihydrofluorescein diacetate, acetyl ester (CM-H2DCFDA; Invitrogen). Briefly, HT-22 cells were seeded onto black walled 96-well plates at 5.0×10^3 cells per well in 75 μL of medium and maintained at 37° C. in 5% CO2 overnight prior to the initiation of experimental treatments. Cells were subsequently treated with 25 μL of medium containing glutamate (monosodium glutamate, Sigma, 1 M stock concentration in media, to achieve a final concentration of 10 mM) plus inhibitors (stock in DMSO) and maintained at 37° C. in 5% CO2. After 8 hrs, Rho123 (5 μM), CM-H2DCFDA (1 μM), or MitoSox (5 μM) and Mitotracker DR (10 nM) was added to achieve the indicated final concentrations. Cells were allowed to incubate for 20 minutes and then washed twice with Hanks Balanced Salt Solution (HBSS; Hyclone; CaCl2 1.26 mM, MgCl2-6H2O 0.493 mM, MgSO4-7H2O 0.407 mM, KCl 5.33 mM, KH2PO4 0.441 mM, NaHCO3 4.17 mM, NaCl 137.93 mM, Na2HPO4 0.338 mM, D-Glucose 5.56 mM), with a final addition of 100 μL of HBSS in which the cells were visualized. Fluorescence of the oxidized Rho123 was measured using a Fluoroskan Ascent spectrofluorometer (Labsystems). Peak excitation and emission wavelengths were 500 and 536, respectively. For fluorescent imaging of the oxidation product of CM-H2DCFDA, cells were immediately visualized using an InCell 2000 Analyzer (GE) with a 40× objective and a FITC excitation/emission filter set. Image processing was performed using ImageJ, and for all images, the microscope and image processing settings, such as levels, brightness, contrast, and exposure time were held constant across all treatment conditions.

| Compound | anticonvulsant activity in maximal electroshock test [1] | animals protected/animals tested, 0.25 hr [1] | animals protected/animals tested, 0.5 hr [1] | animals protected/animals tested, 1.0 hr [1] | animals protected/animals tested, 2.0 hr [1] | animals protected/animals tested, 4.0 hr [1] | animals displaying toxic effects/animals tested, 0.25 hr [2] | animals displaying toxic effects/animals tested, 0.5 hr [2] | animals displaying toxic effects/animals tested, 1.0 hr [2] | animals displaying toxic effects/animals tested, 2.0 hr [2] | animals displaying toxic effects/animals tested, 4.0 hr [2] | depletion of total cellular GSH (HT22 cells [3]) | ROS accumulation (Rho123) (HT22 cells [4]) |
| --- | --- | --- | --- | --- | --- | --- | --- | --- | --- | --- | --- | --- | --- |
| C#CCNC1=CC(=O)c2ccccc2C1=O [Compound 2h, 2-(prop-2-yn-1-ylamino)naphthalene-1,4-dione] | limited anticonvulsant activity | 0/4 | 0/4 | 0/4 | 1/4 | 1/4 | 0/12 | 1/12 | 0/12 | 0/12 | 0/12 |  |  |
| O=C1C=C(NCc2ccccc2)C(=O)c2ccccc21 [Compound 2j, 2-(benzylamino)naphthalene-1,4-dione] | limited anticonvulsant activity | 0/4 | 0/4 | 0/4 | 2/4 | 0/4 | 0/12 | 0/12 | 0/12 | 0/12 | 0/12 | does not prevent GSH | prevent the accumulation of ROS |
| O=C1C=C(NCc2cccc(Cl)c2)C(=O)c2ccccc21 [Compound 2q, 2-((3-chlorobenzyl)amino)naphthalene-1,4-dione] |  | 0/4 | 0/4 | 0/4 | 0/4 | 0/4 | 0/12 | 0/12 | 0/12 | 0/12 | 0/12 | does not prevent GSH | prevent the accumulation of ROS |
| menaquinones [VK2, reference compound] |  |  |  |  |  |  |  |  |  |  |  | does not prevent GSH | less effective |
